Assay results taken from paper PMC6271395, “Synthesis and Biological Activities of Some New (N^α-Dinicotinoyl)-bis-L-Leucyl Linear and Macrocyclic Peptides” (Molecules, 2014).

Tests used:
Bacillus aureus = assay: Agar diffusion antimicrobial test, Bacillus aureus; format: cell-based; conditions: Gram+ve, modified Kirby–Bauer disk diffusion, 10 µg/mL
Protocol: (§1) The newly synthesized compounds 3–12 were tested for their preliminary antimicrobial activity against different microorganisms representing Gram-positive (Bacillus subtilis, Bacillus aureus and Staphylococcus aureus), Gram-negative bacteria (Escherichia coli), yeast (Candida albican) and fungi (Aspergillus niger).
(§2) The antimicrobial activities of the synthesized compounds were determined by the agar diffusion method as recommended by the national committee for clinical laboratory standards (NCCLS). The concentrations of the tested compounds (10 µg/mL) were used according to modified Kirby–Bauer’s disk diffusion method. The degree of inhibition is measured in comparison with that of chloramphinicol and fusidic acid taken as standards.

Bacillus subtilis = assay: Agar diffusion antimicrobial test, Bacillus subtilis; format: cell-based; conditions: Gram+ve, modified Kirby–Bauer disk diffusion, 10 µg/mL
Protocol: as §1, §2

Escherichia coli = assay: Agar diffusion antimicrobial test, Escherichia coli; format: cell-based; conditions: Gram−ve, modified Kirby–Bauer disk diffusion, 10 µg/mL
Protocol: as §1, §2

Staphylococcus aureus = assay: Agar diffusion antimicrobial test, Staphylococcus aureus; format: cell-based; conditions: Gram+ve, modified Kirby–Bauer disk diffusion, 10 µg/mL
Protocol: as §1, §2

Aspergillus niger = assay: Agar diffusion antimicrobial test, Aspergillus niger; format: cell-based; conditions: Fungi, modified Kirby–Bauer disk diffusion, 10 µg/mL
Protocol: as §1, §2

plasma PGE2 = assay: Inhibition of plasma PGE2 (EIA) in carrageenan-challenged rats; format: in vivo, rat; conditions: rats n = 8, blood four hours after drug administration, PGE2 EIA kit
Protocol: (§3) For the determination of the antiphlogistic potency of the synthesized compounds, two standard tests were realized at a dose level 2.5 and 5 mg/kg body weight of the rats, namely the protection against carrageenan-induced edema according to Winter et al. and the inhibition of plasma PGE2. The latter is known as a good confirming indicator for carrageenan-induced rat paw edema. […] For these compounds, a similar activity profile was realized for the inhibition of plasma PGE2.
(§4) Groups of adult male albino rats (150–180 g), each of eight animals were orally dosed with tested compounds at a dose level of 2.5–5 mg/kg one hour before carrageenan challenge. Foot paw edema was induced by subplantar injection of 0.05 cm^3 of a 1% suspension of carrageenan in saline into the plantar tissue of one hind paw. An equal volume of saline was injected to the other hand paw and served as control. Four hours after drug administration the animals were decapitated, blood was collected, and the paws were rapidly excised. The average weight of edema was examined for the treated as well as the control group and the percentage inhibition of weight of edema was also evaluated. Diclofenac potassium (5 mg/kg) was employed as standard reference against which the tested compounds were compared (Table 2).
Heparinized blood samples were collected from rats (n = 8), plasma was separated by centrifugation at 12,000 g for 2 min at […], immediately frozen, and stored at […] until use. The design correlate EIA prostaglandin E2 (PGE2) kit (Aldrich, Steinheim, Germany) is a competitive immuno assay for the quantitative determination of PGE2 in biological fluids. The kit uses a monoclonal antibody to PGE2 to bind, in a competitive manner, the PGE2 in the sample after a simultaneous incubation at room temperature. The excess reagents were washed away and the substrate was added, after a short incubation time the enzyme reaction was stopped, and the yellow color generated was read on a microplate reader DYNATech, MR 5000 at 405 nm (Dynatech Industries Inc., McLean, VA, USA). The intensity of the bound yellow color is inversely proportional to the concentration of PGE2 in either standard or samples.

[1] = tested on: carrageenan-induced edema; assay: Carrageenan-induced edema (rat paw test); format: in vivo; conditions: one hour before carrageenan, male albino rats, eight animals per group, paws excised four hours after drug administration
Protocol: as §3, §4

Compound | Inhibition Zome, Bacillus aureus (Bacillus aureus) | Inhibition Zome, Bacillus subtilis (Bacillus subtilis) | Inhibition Zome, Escherichia coli (Escherichia coli) | Inhibition Zome, Staphylococcus aureus (Staphylococcus aureus) | Inhibition Zome, Aspergillus niger (Aspergillus niger) | % Inhibition of Plasma PGE2 (plasma PGE2; dose 2.5 mg/kg oral) | % Inhibition of Plasma PGE2 (plasma PGE2; dose 5.0 mg/kg oral) | % Protection against Edema ([1]; dose 2.5 mg/kg oral) | % Protection against Edema ([1]; dose 5.0 mg/kg oral)
2,6-Bis {N-[1-{(2E)-2-[1-(4-nitrophenyl)ethylidene]hydrazinyl}-4-methyl-1-oxopentan]-3-carboxamido}pyridine [Compound 9c] | 1.22 cm | 1.72 cm | 0.60 cm | 1.66 cm | 1.76 cm |  |  |  | 
2,6-Bis[(N-[4-methyl-1-(4,5,6,7-tetrachloro-1H-isoindole-1,3(2H)-dion)-pentan]-3-carboxamido]-pyridine [Compound 7b] | 1.80 cm | 1.46 cm | 0.66 cm | 1.45 cm | 1.95 cm |  |  |  | 
O=C(N[C@H](CO)[C@H](O)c1ccc([N+](=O)[O-])cc1)C(Cl)Cl [Chloramphenicol, reference compound] | 2.10 cm | 2.00 cm | 0.95 cm | 2.00 cm |  |  |  |  | 
COC(=O)[C@H](CC(C)C)NC(=O)c1cncc(C(=O)N[C@@H](CC(C)C)C(=O)OC)c1 [Compound 3, 3,5-Bis-(Methyl L-Leucenylcarbonyl)pyridine carboxylate] | 1.65 cm | 1.46 cm | 0.62 cm | 1.76 cm | 1.78 cm | 59.45 ± 0.050% | 81.10 ± 0.056% | 86.16 ± 0.052% | 98.18 ± 0.053%
CC(C)C[C@H](NC(=O)c1cncc(C(=O)N[C@@H](CC(C)C)C(=O)O)c1)C(=O)O [Compound 5, N,N′-Bis(1-Carboxy-2-L-leucyl)-3,5-(diaminocarbonyl)pyridine] | 1.14 cm | 1.68 cm | 0.64 cm | 1.76 cm | 1.72 cm | 61.16 ± 0.041% | 77.14 ± 0.036% | 85.14 ± 0.056% | 96.18 ± 0.067%
COC(=O)[C@@H]1CCCCNC(=O)[C@H](CC(C)C)NC(=O)c2cncc(c2)C(=O)N[C@@H](CC(C)C)C(=O)N1 [Compound 6, Cyclo-(Na-dinicotinoyl)-bis-(L-leucyl)-L-lysine methyl ester] | 1.50 cm | 1.82 cm | 0.65 cm | 1.54 cm | 1.75 cm | 84.18 ± 0.052% | 86.01 ± 0.030% | 92.14 ± 0.076% | 99.08 ± 0.062%
O=C([O-])Cc1ccccc1Nc1c(Cl)cccc1Cl.[K+] [Diclofenac Potassium, reference compound] |  |  |  |  |  | 54.00 ± 0.041% | 70.00 ± 0.051% | 70.14 ± 0.064% | 75.23 ± 0.083%
